Reference: patent US5679671A, “Amino acid derivative” (Eisai Co., Ltd., priority 1993, dated 1997)

Key:
NEP [1] = biological target: T1, NEP (Rattus norvegicus, UniProt P07861); assay: NEP inhibition activity (Experiment F-1); assay type: biochemical; parameters: membrane fraction prepared from rat renal cortex; from tissue; host or cells: rat renal cortex, membrane fraction (method of Booth and Kenny); details: rat renal cortex membrane fraction
T1 sequence (P07861 1-750): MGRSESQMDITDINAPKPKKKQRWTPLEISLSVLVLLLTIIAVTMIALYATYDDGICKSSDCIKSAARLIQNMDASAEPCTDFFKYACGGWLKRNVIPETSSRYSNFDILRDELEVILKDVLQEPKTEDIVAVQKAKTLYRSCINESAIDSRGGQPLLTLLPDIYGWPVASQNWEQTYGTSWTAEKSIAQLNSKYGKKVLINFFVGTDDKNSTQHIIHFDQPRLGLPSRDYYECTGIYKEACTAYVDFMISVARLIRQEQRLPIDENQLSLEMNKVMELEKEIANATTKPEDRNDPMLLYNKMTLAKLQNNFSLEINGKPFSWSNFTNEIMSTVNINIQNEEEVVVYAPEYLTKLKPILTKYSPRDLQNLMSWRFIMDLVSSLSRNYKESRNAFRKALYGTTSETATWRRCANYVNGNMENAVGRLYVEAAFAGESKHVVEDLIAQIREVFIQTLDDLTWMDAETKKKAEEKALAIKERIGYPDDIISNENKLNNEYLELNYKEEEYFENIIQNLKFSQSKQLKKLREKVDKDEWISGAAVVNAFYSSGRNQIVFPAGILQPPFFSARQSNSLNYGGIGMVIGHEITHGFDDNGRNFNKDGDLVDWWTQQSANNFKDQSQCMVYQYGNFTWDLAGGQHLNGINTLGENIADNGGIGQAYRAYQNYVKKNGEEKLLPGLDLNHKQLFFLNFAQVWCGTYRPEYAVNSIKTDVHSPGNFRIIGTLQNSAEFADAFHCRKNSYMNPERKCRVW
Procedure: (§1) As a source of the enzyme NEP, a membrane fraction prepared from rat renal cortex in accordance with the method of Booth and Kenny (A Rapid Method for the Purification of Microvilli from Rabbit Kidney., Andrew G. Booth and A. John Kenny, Biochem. j., 1974, 142, 575-581.) was employed. The NEP activity was determined in accordance with the method of Orlowsky and Wilk (Purification and Specificity of a Membrane-Bound Metalloendpeptidase from Bovine Pituitaries., Marian Orlowsky and Shrwin Wilk, Biochemistry, 1981, 20, 4942-4950.). Now the procedure will be briefly described.
(§2) As a substrate, benzoyl-glycyl-arginyl-arginyl-2-naphthylamide (benzoyl-Gly-Arg-Arg-2-naphthylamide (Nova Biochem, Switzerland)) was used. In the presence of an NEP enzyme preparation and excessive leucine aminopeptidase (sigma chemical Co., U.S.A.), the liberated naphthylamine was made to undergo color development with first garnet (Sigma chemical Co., U.S.A.), followed by the measurement of the absorbance at a wavelength of 540 nm.
(§3) With respect to the NEP inhibition activity and the ACE inhibition activity, the inhibitor was added to the assay systems of both enzyme activities as described above in such a manner as to give the final concentrations of 1, 3, 10, 30, 100, 300 and 1000 inhibition curves were prepared, and then the concentration at which 50% inhibition was achieved was taken as IC50.

NEP [2] = biological target: T1, NEP; assay: NEP inhibition activity (Experiment C-1); assay type: biochemical; details: Table C-1
Procedure: The NEP activity was determined by the following manner in accordance with the method of Orlowsky and Wilk (Purification and Specificity of a Membrane-Bound Metalloendpeptidase from Bovine Pituitaries., Marian Orlowsky and Shrwin Wilk, Biochemistry, 1981, 20, 4942-4950.).
as §2
With respect to the NEP inhibition activity, the test compound was added to the experimental system as described above in such a manner as to give the final concentrations of 1, 3, 10, 30, 100, 300 and 1000 nM, an inhibition curve was prepared, and then the concentration at which 50% inhibition was achieved was taken as IC50. As a comparative compound, [4S-[4α,7α(R*),12bβ]]-7-[(1-oxo-2-(S)-thio-3-phenyl-propyl)amino]-1,2,3,4,6,7,8,12b-octahydro-6-oxopyrido-[2,1-a][2]benzazepine-4-carboxylic acid was used.

NEP [3] = biological target: T1, NEP; assay: NEP inhibition activity (Experiment E-1); assay type: biochemical; parameters: membrane fraction prepared from rat renal cortex; from tissue; host or cells: rat renal cortex, membrane fraction (method of Booth and Kenny); details: rat renal cortex membrane fraction
Procedure: as §1, with “142,575-581.)” for “142, 575-581.)”
as §2, with “(benzoyl-Gly-Arg-Arg-2 naphthylamide” for “(benzoyl-Gly-Arg-Arg-2-naphthylamide”
as §3, with “To determine” for “With respect to”, “[…]” for “300”, “1000 nM and” for “1000”, “prepared. Then” for “prepared, and then”

[4] = tested on: 2K-1C-Goldblatt Hypertensive Rat; assay: Hypotensive effect on 2K-1C-Goldblatt hypertensive rat, oral (Experiment C-3); assay type: in vivo, male Sprague Dawley rats
Procedure: A silver clip with a slit of 0.25 mm in width was fitted into the left renal artery of each of male Sprague Dawley rats (aged 6 to 7 weeks) and, after three weeks, rats showing a systolic blood pressure of 180 mmHg or above were employed. One to several drops of a 1N aqueous solution of sodium hydroxide were dropped into purified water and each test compound was dissolved or emulsified therein to prepare it at a dose of 5 ml/kg, followed by orally administration. After keeping the rats in an incubator at 45° C. for 5 to 10 minutes, the systolic blood pressure was measured by the indirect method of tail artery plethysmography. As a comparative compound, [4S-[4α,7α(R*),12bβ]]-7-[(1-oxo-2-(S)-thio-3-phenyl-propyl)amino[-1,2,3,4,6,7,8,12b-octahydro-6-oxo-pyrido[2,1-a][2]benzazepine-4-carboxylic acid was used.

Row | Structure (SMILES) | IC50 (NEP [1]) | IC50 (NEP [2]) | IC50 (NEP [3]) | Decrease (%) in blood pressure after 6 hrs. ([4]; 1 mg/kg oral) | also measured
1 | O=C(N[C@H]1Cc2ccccc2[C@H]2CCC[C@@H](C(=O)O)N2C1=O)[C@@H](S)Cc1ccccc1 [Comp. cpd. E-1, [4S-[4α,7α(R*),12bβ]]-7-[(1-oxo-2-(S)-thio-3-phenyl-propyl)amino]-1,2,3,4,6,7,8,12b-octahydro-6-oxopyrido-[2,1-a][2]benzazepine-4-carboxylic acid, reference compound] | 13.5 nM | 27 nM | 27 nM |  | Decrease (%) in blood pressure after 1-3 hrs. ([4]; 3 mg/kg oral, after 1 hr): 15.4%; Decrease (%) in blood pressure after 6 hrs. ([4]; 3 mg/kg oral): 12.9%; Decrease (%) in blood pressure after 1-3 hrs. ([4]; 10 mg/kg oral, after 1 hr): 14.2%; Decrease (%) in blood pressure after 6 hrs. ([4]; 10 mg/kg oral): 19.1%
2 | CC[C@H](C)[C@H](S)C(=O)N[C@H]1Cc2ccc(-c3ccccc3)cc2[C@H]2CCC[C@@H](C(=O)O)N2C1=O [Example C-14, [4S-[4α,7α(R*),12bβ]]-7-[[(2S,3S)-3-Methyl-1-oxo-2-thiopentyl]amino]-6-oxo-11-phenyl-1,2,3,4,6,7,8,12b-octahydropyrido[2,1-a][2]benzazepine-4-carboxylic acid] |  | 17.8 nM | 14 nM | 12.7% | Decrease (%) in blood pressure after 1-3 hrs. ([4]; 1 mg/kg oral, after 3 hrs): 13.4%; Decrease (%) in blood pressure after 1-3 hrs. ([4]; 3 mg/kg oral, after 3 hrs): 25.9%; Decrease (%) in blood pressure after 6 hrs. ([4]; 3 mg/kg oral): 22.2%
3 | CC(C)[C@H](S)C(=O)N[C@H]1Cc2ccc(-c3ccccc3)cc2[C@H]2CCC[C@@H](C(=O)O)N2C1=O [Example E-10, [4S-[4α,7α(R*),12bβ]]-7-[(S)-2-Mercapto-3-methylbutyrylamino]-6-oxo-11-phenyl-1,2,3,4,6,7,8,12b-octahydropyrido[2,1-a][2]benzazepine-4-carboxylic acid] |  |  | 8.2 nM |  | 
4 | O=C(N[C@H]1CCC[C@H]2SC[C@@H](C(=O)O)N2C1=O)[C@@H](S)Cc1ccccc1 [Example F-17, [3R-[3α,6α(S*),9aβ]]-6-[[(S)-1-Oxo-2-thio-3-phenylpropyl]amino]-octahydro-5-oxothiazol[3,2-a]-azepine-3-carboxylic acid] | 11.1 nM |  |  |  | 

The remaining compounds from weak to strong by IC50 (NEP [2]), led by results:

Row | IC50 (NEP [1]) | IC50 (NEP [2]) | IC50 (NEP [3]) | Structure (SMILES) | Decrease (%) in blood pressure after 6 hrs. ([4]; 1 mg/kg oral) | also measured
5 | 9.2 nM | 13.4 nM |  | CC[C@H](C)[C@H](S)C(=O)N[C@H]1CCC[C@H]2SC[C@@H](C(=O)O)N2C1=O [Example C-8, [3R-[3α,6α,(S*),9aβ]]-6-[[(2S,3S)-3-methyl-1-oxo-2-thiopentyl]amino]-octahydro-5-oxothiazol[3,2-a]-azepine-3-carboxylic acid] | 25.3% | Decrease (%) in blood pressure after 1-3 hrs. ([4]; 1 mg/kg oral, after 2 hrs): 28.4%
6 |  | 12.5 nM |  | CC[C@H](C)[C@H](S)C(=O)NC1CCc2ccccc2N(CC(=O)O)C1=O (stereo partly drawn) [Example A-9, 1-Carboxymethyl-3-[(2S,3S)-2-mercapto-3-methylvarelylamino]-1H-[1]benzazepin-2-one] | 20.8% | Decrease (%) in blood pressure after 1-3 hrs. ([4]; 1 mg/kg oral, after 2 hrs): 17.3%
7 |  | 6.2 nM |  | CC[C@H](C)[C@H](S)C(=O)N[C@H]1CCc2ccccc2N(CC(=O)O)C1=O [Example A-11, (S)-3-[(2S,3S)-2-Mercapto-3-methylvarelylamino]-1-carboxymethyl-2,3,4,5-tetrahydro-1H-[1]benzazepin-2-one] |  | 
